PubChem BioAssay (NCI)
Values joined by “and” are separate entries in the source; they are usually repeats but may differ in a detail not shown here. Equal values may be shown once.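 Compound exposure: 48 hours, 5 concentrations, 96-well plates. The concentration for 50% growth inhibition is given as GI50. The concentration for full growth arrest is given as TGI.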

What was measured:
Experiment in all cases: growth of human tumour cells (NCI), 48 h
A498 renal = system: A498 renal
MDA-MB-435 = system: MDA-MB-435
OVCAR-5 ovarian = system: OVCAR-5 ovarian
RXF 393 renal = system: RXF 393 renal
SK-MEL-5 melanoma = system: SK-MEL-5 melanoma
SNB-75 CNS = system: SNB-75 CNS
SW-620 colon = system: SW-620 colon
T-47D breast = system: T-47D breast
U251 CNS = system: U251 CNS
UO-31 renal = system: UO-31 renal

Structure (SMILES)	GI50 (A498 renal)	TGI (A498 renal)	GI50 (MDA-MB-435)	TGI (MDA-MB-435)	GI50 (OVCAR-5 ovarian)	TGI (OVCAR-5 ovarian)	GI50 (RXF 393 renal)	TGI (RXF 393 renal)	GI50 (SK-MEL-5 melanoma)	TGI (SK-MEL-5 melanoma)	GI50 (SNB-75 CNS)	TGI (SNB-75 CNS)	GI50 (SW-620 colon)	TGI (SW-620 colon)	GI50 (T-47D breast)	TGI (T-47D breast)	GI50 (U251 CNS)	TGI (U251 CNS)	GI50 (UO-31 renal)	TGI (UO-31 renal)
Cc1[nH]c(-c2nc3ccccc3[nH]2)c(C)c1C(=O)NC(C)C1CCCCC1 (stereo not given)	7.71 µM	20.1 µM	2.29 µM	5.85 µM	15 µM	29.2 µM	3.17 µM	11 µM	10.3 µM	22.3 µM	3.62 µM	16.4 µM	4.95 µM	18.3 µM	12.4 µM	39.2 µM	5.58 µM	25.1 µM	11.9 µM	25.6 µM
O=C(O)CCc1c2ccc(=O)c(O)c-2oc2c(O)c(O)ccc12	–	> 100 µM	–	31.1 µM	–	> 100 µM	–	> 100 µM	–	> 100 µM	–	> 100 µM	–	59.9 µM	–	> 100 µM	–	> 100 µM	–	> 100 µM
O=C1C(=O)c2ccccc2C(O)=C1CCCc1ccc(C2CCCCCC2)cc1	0.349 µM	13.1 µM	0.608 µM	48.2 µM	19.8 µM	> 100 µM	10.2 µM	41.7 µM	0.445 µM	11.5 µM	2.5 µM	52.2 µM	0.576 µM	33.2 µM	3.46 µM	> 45.8 µM	0.687 µM	25.3 µM	0.612 µM	8.94 µM
CC(C)n1nc(-c2ccc3oc(N)nc3c2)c2c(N)ncnc21	< 0.01 µM	< 0.01 µM	< 0.0125 µM and 0.0138 µM	0.403 µM and 0.11 µM	0.0132 µM and 0.0161 µM	1.4 µM and 2.08 µM	< 0.01 µM	0.043 µM and 0.0533 µM	0.0171 µM and < 0.0114 µM	0.143 µM and 0.0865 µM	< 0.01 µM	0.0532 µM and 0.0211 µM	0.037 µM and 0.0379 µM	21.1 µM and 12.6 µM	< 0.01 µM	0.016 µM and 0.0155 µM	0.0229 µM and 0.0255 µM	10.2 µM and 2.44 µM	< 0.01 µM	0.0402 µM and 0.0898 µM
NC(N)=Nc1nc2ccc([N+](=O)[O-])cc2[nH]1	–	> 100 µM	–	> 100 µM	–	> 100 µM	–	> 100 µM	–	> 100 µM	–	> 100 µM	–	> 100 µM	–	> 100 µM	–	> 100 µM	–	> 100 µM
CCOC(=O)c1oc2ccc([N+](=O)[O-])c3c2c1CCC3	–	> 100 µM	–	> 55.5 µM	–	> 100 µM	–	59.6 µM	–	> 100 µM	–	33.5 µM	–	> 100 µM	–	> 31.6 µM	–	59.2 µM	–	> 100 µM
